The text below walks through data of doi:10.1101/2025.03.31.646177v2, “Target engagement studies and kinetic live-cell degradation assays enable the systematic characterization of HDAC6 PROTACs” (biorxiv, 2025).

The target of experiment [1] is T1, HDAC6-HiBiT (endogenously tagged HDAC6 in HeLa HDAC6-HiBiT LgBiT cells) (Homo sapiens, UniProt Q9UBN7).
T1 sequence (Q9UBN7 1-1215): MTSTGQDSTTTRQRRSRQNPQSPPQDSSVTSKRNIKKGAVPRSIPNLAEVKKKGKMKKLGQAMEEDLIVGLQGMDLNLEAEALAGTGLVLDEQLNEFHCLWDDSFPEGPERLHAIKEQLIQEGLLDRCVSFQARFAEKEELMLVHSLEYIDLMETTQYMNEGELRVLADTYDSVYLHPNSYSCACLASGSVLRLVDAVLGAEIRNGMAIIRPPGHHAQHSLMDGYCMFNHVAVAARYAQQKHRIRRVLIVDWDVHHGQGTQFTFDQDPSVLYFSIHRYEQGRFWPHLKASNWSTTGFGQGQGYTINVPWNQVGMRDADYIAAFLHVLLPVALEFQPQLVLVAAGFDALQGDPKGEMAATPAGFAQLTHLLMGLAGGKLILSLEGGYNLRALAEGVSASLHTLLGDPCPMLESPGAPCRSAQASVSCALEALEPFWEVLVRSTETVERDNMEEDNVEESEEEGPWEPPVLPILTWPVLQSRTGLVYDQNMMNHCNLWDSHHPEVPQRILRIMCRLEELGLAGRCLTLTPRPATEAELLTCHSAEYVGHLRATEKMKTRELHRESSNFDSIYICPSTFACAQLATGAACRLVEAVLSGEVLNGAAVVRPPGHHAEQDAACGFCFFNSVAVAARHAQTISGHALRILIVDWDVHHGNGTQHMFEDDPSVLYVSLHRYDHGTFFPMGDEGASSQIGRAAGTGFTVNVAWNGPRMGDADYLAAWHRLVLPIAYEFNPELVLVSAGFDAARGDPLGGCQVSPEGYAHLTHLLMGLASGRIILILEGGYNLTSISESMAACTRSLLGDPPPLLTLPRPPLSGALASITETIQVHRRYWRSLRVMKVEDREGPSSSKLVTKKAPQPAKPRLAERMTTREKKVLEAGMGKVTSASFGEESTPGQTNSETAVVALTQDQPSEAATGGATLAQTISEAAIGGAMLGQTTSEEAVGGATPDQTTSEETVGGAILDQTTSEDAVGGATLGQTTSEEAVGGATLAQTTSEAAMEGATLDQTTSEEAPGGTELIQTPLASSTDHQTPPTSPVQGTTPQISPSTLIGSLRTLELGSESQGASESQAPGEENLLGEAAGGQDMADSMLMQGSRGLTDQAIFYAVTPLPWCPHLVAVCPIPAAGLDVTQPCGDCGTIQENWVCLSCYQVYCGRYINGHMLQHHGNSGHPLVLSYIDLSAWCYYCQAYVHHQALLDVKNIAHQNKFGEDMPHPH
The experiment can be described thus: NanoBRET saturation binding. The experiment is classed as cell-based. (In BRET a luciferase serves as donor, and the signal depends on an acceptor being close.)

Experiment [2] deals with T2, HDAC6 (human recombinant) (Homo sapiens, UniProt Q9UBN7).
T2 sequence (Q9UBN7 1-1215): T1 sequence (Q9UBN7 1-1215)
The experiment can be described thus: fluorogenic HDAC assay (ZMAL substrate, trypsin-coupled). Format: biochemical. The text has this: fluorogenic HDAC assay (ZMAL substrate, trypsin-coupled) on HDAC6 (human recombinant)

The target of experiment [3] is HDAC1 (human recombinant) (Homo sapiens, UniProt Q13547). The experiment is described as above. Format: biochemical. The text has this:
fluorogenic HDAC assay (ZMAL substrate, trypsin-coupled) on HDAC1 (human recombinant)

Experiment [4] has as its target HDAC2 (human recombinant) (Homo sapiens, UniProt Q92769). Described as above. The experiment is classed as biochemical. The source says: fluorogenic HDAC assay (ZMAL substrate, trypsin-coupled) on HDAC2 (human recombinant)
Experiment [5] addresses T1, HDAC6-HiBiT (endogenously tagged HDAC6 in HeLa HDAC6-HiBiT LgBiT cells). Nature of the experiment: NanoBRET competition with tracer […]. Format: cell-based.

SMILES strings stand for the structures.

HDAC2 (human recombinant), sequence (Q92769 whole entry): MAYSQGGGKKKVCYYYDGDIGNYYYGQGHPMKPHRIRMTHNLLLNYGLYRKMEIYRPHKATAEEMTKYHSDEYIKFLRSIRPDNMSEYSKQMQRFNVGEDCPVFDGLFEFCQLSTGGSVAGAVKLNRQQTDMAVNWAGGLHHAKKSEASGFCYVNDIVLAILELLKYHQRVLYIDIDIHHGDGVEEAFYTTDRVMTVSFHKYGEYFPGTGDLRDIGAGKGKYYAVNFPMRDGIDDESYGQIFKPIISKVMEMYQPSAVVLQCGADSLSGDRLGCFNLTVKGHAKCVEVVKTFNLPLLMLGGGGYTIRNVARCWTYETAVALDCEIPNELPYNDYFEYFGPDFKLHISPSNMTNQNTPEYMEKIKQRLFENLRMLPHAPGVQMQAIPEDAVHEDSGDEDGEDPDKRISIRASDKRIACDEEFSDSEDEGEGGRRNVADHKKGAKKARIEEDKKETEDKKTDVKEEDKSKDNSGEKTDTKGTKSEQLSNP
HDAC1 (human recombinant), sequence (Q13547 whole entry): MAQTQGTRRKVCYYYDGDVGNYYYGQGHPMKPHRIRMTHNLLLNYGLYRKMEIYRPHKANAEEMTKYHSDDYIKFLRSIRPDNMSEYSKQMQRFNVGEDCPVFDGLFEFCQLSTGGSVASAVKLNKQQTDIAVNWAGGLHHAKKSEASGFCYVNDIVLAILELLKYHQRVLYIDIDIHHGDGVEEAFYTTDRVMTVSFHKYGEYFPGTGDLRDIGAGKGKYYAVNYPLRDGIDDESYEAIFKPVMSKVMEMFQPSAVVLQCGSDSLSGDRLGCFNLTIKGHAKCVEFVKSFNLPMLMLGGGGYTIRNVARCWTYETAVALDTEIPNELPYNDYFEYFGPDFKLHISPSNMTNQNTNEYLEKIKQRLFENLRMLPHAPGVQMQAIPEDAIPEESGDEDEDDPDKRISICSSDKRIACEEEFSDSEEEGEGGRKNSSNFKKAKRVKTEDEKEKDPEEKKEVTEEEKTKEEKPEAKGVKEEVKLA

The compound `CN(C)c1ccc2c(-c3ccc(C(=O)NCCCn4cc(COc5ccc(C(=O)NCCCCCCC(=O)NO)cc5)nn4)cc3C(=O)[O-])c3ccc(=[N+](C)C)cc-3oc2c1` [compound 5, 2-[6-(Dimethylamino)-3-(dimethyliminio)-3H-xanthen-9-yl]-5-[(3-{4-[(4-{[7-(hydroxyamino)-7-oxoheptyl]carbamoyl}phenoxy)methyl]-1H-1,2,3-triazol-1-yl}propyl)carbamoyl]benzoate] came in with an equilibrium dissociation constant (Kd) in experiment [1] of 80 ± 11 nM. Moreover, the values for the IC50 in experiment [2], in experiment [3] and in experiment [4] were 9.1 ± 0.1 nM, 130 ± 20 nM and 220 ± 10 nM, respectively.

In experiment [1], `CN(C)c1ccc2c(-c3ccc(C(=O)NCCOCCOCCOCCn4cc(COc5ccc(C(=O)NCCCCCCC(=O)NO)cc5)nn4)cc3C(=O)[O-])c3ccc(N(C)C)cc3[o+]c2c1` [compound 4, tracer 4] displayed a Kd of 120 ± 40 nM. Also, the IC50 in experiment [2] is 18 ± 1 nM; in experiment [3], 200 ± 20 nM; in experiment [4], 340 ± 40 nM.

`FC(F)c1nnc(-c2cnc(NCc3ccccc3)nc2)o1` [BK1] registered an IC50 in experiment [5] of 75 ± 30 nM.

The Kd is the constant that tells how readily two partners part at equilibrium. Read a low Kd as higher affinity. A word on the IC50: it is the concentration that inhibits the measured activity by half.
